In patent publication US20110173718A1, “HERBICIDE TOLERANT PLANTS” (SYNGENTA CROP PROTECTION, INC., priority 2008, published 2011):
Several values for one entry are separate records, joined by “and”; a condition that tells them apart may be missing. Equal values may be shown once. Marks after values point to notes of the source that are not given here.

Legend:
[1] = system: HST in spinach chloroplast extract; assay: HST assay (TLC, MFBQ formed), spinach chloroplast extract; assay type: biochemical; settings: 25 ppm; TLC, estimated amount of MFBQ formed, relative to controls
Experimental: HST enzyme preparations for assay are also prepared directly from fresh plant material. For example HST enzyme preparations are from spinach. In the first step intact spinach chloroplasts are prepared from two lots of 500 g of fresh baby spinach leaves (e.g from the salad section of the local supermarket). Prepacked spinach is usually already washed, but if buying loose leaves these must be rinsed in water before proceeding. Stalks, large leaves and mid-ribs are removed. Each 500 g lot of leaves is added to 1.5 l of ‘Grinding medium’ in a 2 L plastic beaker. Grinding medium is cold (4° C.) 50 mM Tricine/NaOH buffer at pH 7.1 containing 330 mM glucose, 2 mM sodium isoascorbate, 5 mM MgCl2 and 0.1% bovine serum albumen The beaker, kept at 4° C., is placed under a Polytron 6000 blender, fitted with a 1.5″cutting probe and the mixture blended in short bursts of 5-8 sec up to 8-10K rpm until all the leaves are macerated. The homogenate is filtered into a 5 L beaker (embedded in an ice bucket) through four layers of muslin, and two layers of 50μ mesh nylon cloth. The filtrate is transferred to 250 ml buckets of a Beckman GS-6 centrifuge and spun at […] (3020 rpm) for 2 min at 4° C. The supernatant is drained away and discarded to leave a sediment of chloroplasts. Chloroplasts are resuspended in a few ml of cold resuspension medium by gentle swirling and gentle use of a quill brush soaked in resuspension medium. Resuspension medium is 50 mM Hepes/KOH pH 7.8 containing 330 mM sorbitol, 2 mM EDTA, 5 mM KH2PO4, 2 mM MgCl2 and 0.1% bovine serum albumen at 4° C. The chloroplasts are resuspended in 5-10 ml of resuspension buffer, recentrifuged down and resuspended again in order to wash them. The chloroplasts are then once again centrifuged down and then broken by resuspension in about 5 ml of 50 mM Tricine-NaOH pH 7.8 to a protein concentration of about 40 mg/ml. The solution is stored frozen at −80° C. in aliquots. This resuspension is defrosted and used directly in HST activity assays. Alternatively, chloroplasts are prepared resuspended in 50 mM Tris/HCl buffer at pH 7.8 containing 330 mM sorbitol (alternative resuspension buffer) and layered on top of a percol gradient (comprising the same buffer containing 45% percol), spun down, the intact chloroplast fraction taken and washed 2 or 3 times in the alternative resuspension buffer and then spun down again, resuspended in breaking buffer (without sorbitol), flash frozen and stored in aliquots at −80° C.
(§1) Prenyltransferase (HST) activities are measured by determining the prenylation rates of [U—^14C]homogentisate using farnesyl diphosphate (FDP) as prenyl donor. ^14C homogentisate is prepared from ^14C tyrosine using L amino acid oxidase and HPPD. For inhibitor testing, compounds are dissolved in dimethylsulfoxide (DMSO). DMSO added at up to 2% v/v has no effect on assays. Control assays contain DMSO at the same concentration as in inhibitor containing assays.
Assays using spinach chloroplast extracts (100 μl final volume) contain up to 2 mg of chloroplast protein, 50 mM Tricine-NaOH pH 8.5, 50 mM MgCl2, 200 μM farnesyl diphosphate (FDP) and 26 μM ^14C-homogentisate (167 dpm/pmol). Assays are run for about an hour at 28° C. […] Lipophilic reactions products are extracted and analyzed essentially as described in the literature.
Using the above assays percentage inhibition of the amount of MFBQ formed at a range of doses of inhibitors relative to the control amount obtained with no inhibitor present is reported (Table 1). The better inhibitors give greater percentage inhibition at lower doses.

Arabidopsis HST = biological target: T1, Arabidopsis HST (Arabidopsis thaliana, UniProt Q1ACB3); assay: HST total extraction (non TLC) assay, recombinant Arabidopsis HST from insect cells; assay type: biochemical; settings: 3 point dose curves only conducted at 50 μM HPP
T1 construct: GST (factor Xa cleavage site) (N); made in house; host or cells: Sf9 insect cells (baculovirus, pAcG3X), membrane fraction
T1 sequence (Q1ACB3 70-386): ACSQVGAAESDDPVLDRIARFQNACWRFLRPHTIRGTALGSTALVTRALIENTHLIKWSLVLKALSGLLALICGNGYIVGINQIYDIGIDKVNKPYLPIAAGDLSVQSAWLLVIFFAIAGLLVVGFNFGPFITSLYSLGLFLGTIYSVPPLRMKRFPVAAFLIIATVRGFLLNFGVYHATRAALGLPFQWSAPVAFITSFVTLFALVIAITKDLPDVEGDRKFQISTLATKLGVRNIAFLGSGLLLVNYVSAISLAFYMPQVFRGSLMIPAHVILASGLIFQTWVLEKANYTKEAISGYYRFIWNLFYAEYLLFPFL

Chlamydomonas HST = biological target: T2, Chlamydomonas HST (Chlamydomonas reinhardtii, UniProt A1JHN0); assay: HST assay (TLC, MFBQ formed), recombinant Chlamydomonas HST in E. coli membranes; assay type: biochemical; settings: TLC, estimated amount of MFBQ formed, relative to controls
T2 construct: GST (N); made in house; host or cells: E. coli (BL21A1 / BL21DE3), membrane fraction
T2 sequence (A1JHN0 51-370): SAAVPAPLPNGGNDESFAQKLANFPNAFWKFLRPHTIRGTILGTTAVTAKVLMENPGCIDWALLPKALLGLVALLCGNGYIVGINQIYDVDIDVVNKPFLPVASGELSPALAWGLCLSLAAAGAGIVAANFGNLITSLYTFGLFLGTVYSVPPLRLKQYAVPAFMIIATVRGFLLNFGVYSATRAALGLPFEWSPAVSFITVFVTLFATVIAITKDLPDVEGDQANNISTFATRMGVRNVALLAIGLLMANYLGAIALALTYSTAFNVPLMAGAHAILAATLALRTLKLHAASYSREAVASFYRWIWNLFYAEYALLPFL
Experimental: Alternatively, Arabidopsis and Chlamydomonas mature HST coding sequences are cloned as GST N-terminal fusion enzymes and expressed in E. coli.
E. coli. BL21A1 cells expressing mature Arabidopsis or Chlamydonionas HST as a GST N-terminal fusion proteins are grown, harvested, broken and membrane fractions expressing HST produced.
For example, 1 ng of recombinant DNA is used to transform BL21DE3 cells to obtain a plateful of individual colonies. One of these colonies is picked and used to inoculate an overnight culture of 100 ml of Luria Broth (LB) supplemented with 50 ug/ml of kanamycin at final concentration, grown at 37° C. with shaking at 220 rpm. Next morning, 10 mls of the overnight culture is used to inoculate 11 of fresh sterile LB supplemented with 50 ug/ml of kanamycin at final concentration, grown at 37° C. with shaking at 220 rpm until the OD reached 0.6 at 600 nm, induced with the addition of 0.1 mM IPTG and left to induce at 15° C. overnight. The cells are harvested by centrifugation at 4600 rpm for 10 min at 4° C. and the pellet stored at −80° C. […] E. coli cell pellet is then resuspended in 25 ml of 50 mM Tris, pH 7.5 supplemented with Roche EDTA-free protease inhibitor tablet (one tablet in 200 mls of buffer). 10 ml of cells are lysed by sonication on ice. The resultant lysed cells are centrifuged at 3000 g for 10 min to pellet the cell nuclei/debris etc. 10 mls of supernatant is aspirated and centrifuged at 150,000 g for 60 min at 4° C. The pellet containing the membranes is resuspended in 2 ml of the above buffer. These samples are stored as 100 ul aliquots at −80° C., after being diluted with addition of glycerol to 50% v/v.
as §1
The recombinant Chlamydomonas HST expressed in E. coli membranes is assayed in standard reaction mixtures with 200 μM FDP and 100 μM ^14C-homogentisate (40 dpm/pmol) in 50 mM Tricine-NaOH pH 8.5, 20 mM MgCl2. Assays are started with the addition of enzyme and run for ˜20 min at 28° C.
Recombinant Arabidopsis and Rice HSTs are expressed in insect cells. Assays are run as for Chlamydomonas HST except that assay temperature is 27° C. Assays are stopped with 300 ul of solvent mix (1:2, Chloroform:Methanol) and 100 ul of 0.5% NaCl, agitated/mixed and spun at 13,000 rpm in a benchtop eppendorf centrifuge for 5 minutes. 80 ul of the lower phase extract is loaded onto a TLC plate (silica Gel 60, 20 cm×20 cm) FLA3000 system and run for 35 minutes in dichloromethane. The radioactivity is quantified using a Fuji Phosphoimager and band intensity integrated as quantitative measure of product amount. The bands corresponding to oxidised and reduced 2-methyl-6-farnesyl-1,4-benzoquinol (MFBQ) are identified and the total of the two (oxidised and reduced) band intensities is calculated in order to estimate the total amount of MFBQ product formation. Specific activities of 8 pmol MFBQ min^−1 mg^−1 protein (23 pmol) and 7 pmol MFBQ min^−1 mg^−1 protein (14 pmol) are, for example, estimated for the GST-fusion truncated Arabidopsis HST gene (SEQ ID # 3) expressed in membranes from insect cells 4 days and 5 days after transfection respectively. Similar results are noted from past literature on E. coli expressed Arabidopsis HST. Activity from the insect cell expressed GST-fusion truncated rice HST (SEQ ID# 4) is similar. Expression of the non-truncated HST coding sequences as GST fusions also gives HST activity. […]

[2] = system: wild-type (WT) Samsun tobacco; assay: Glasshouse spray test, wild-type tobacco; assay type: in vivo; settings: for % damage at 7 DAT: WT Samsun, individual plants
Experimental: Rooted transgenic T0 plantlets are transferred from agar and potted into 50% peat, 50% John Innes soil no 3 or, for example, MetroMix® 380 soil (Sun Gro Horticulture, Bellevue, Wash.) with slow-release fertilizer in 3 inch round or 4 inch square pots and left regularly watered to establish for 8-12 d in the glass house. Glass house conditions are about 24-27° C. day; 18-21° C. night and approximately a 14 h (or longer in UK summer) photoperiod. Humidity is ˜65% and light levels up to 2000 μmol/m^2 at bench level. Once new tissue emerges and plants they have reached the 2-4 leaf stage some of the clones from each event are sprayed with test chemicals dissolved in water with 0.2-0.25% X-77 surfactant and sprayed from a boom on a suitable track sprayer moving at 2 mph in a DeVries spray chamber with the nozzle about 2 inches from the plant tops. Spray volume is suitably 25 gallons per acre or, for example, […].
Test chemicals are, for example, compound 2.3 at 500 g/ha. At the same time that transgenic plants are sprayed so too are w/t Samsun tobacco plants grown from seed as well as non-transgenic plants regenerated from tissue culture and non-transgenic tissue culture escapes. Damage is assessed versus unsprayed control plants of like size and development.
6 Seed from w/t Samsun tobacco and 8 T1 seed from events B8 and G9 are also planted out in 3 inch pots, grown on for 7 to 12 d and then, as described in the foregoing examples, the plantlets spray tested for resistance to various chemicals and assessed at 14 DAT. Chemicals are formulated in 0.2% X77 and sprayed at a spray volume of 200 l/ha.
(§2) Seed of wild-type tobacco plants, C2 tobacco plants and of the T1 progeny of a further Arabidopsis-HST expressing tobacco line, D2 were planted out in 3 inch pots, grown on, sprayed with compounds 1.1, 2.30 and 3.6 at the rates shown in table 5. Percent damage scores were assessed at 7 DAT. Aside from the presumptive non-transgenic segregants the D2 line containing the Arabidopis HST expression construct offered the highest level of tolerance to the two HST herbicides with the Psuedomonas HPPD, C2 line, offering only marginal tolerance under the conditions of this test.
(§3) Single copy events amongst the T1 plant lines are identified by their 3:1 segregation ratio (wrt kanamycin and or herbicide) and by quantitative RT-PCR. Seed from the thus selected T1 tobacco (var Samsun) lines are sown in 3 inch diameter pots containing 50% peat, 50% John Innes soil no 3. After growth to the 3 leaf stage, plants are sprayed, as described above, in order to test for herbicide tolerance relative to like-treated non-transgenic tobacco plants.
(§4) Control tobacco plants and transgenic T1 plants expressing either the Pseudomonas or the wheat HPPD gene are sprayed at 37, 111, 333 and 1000 g/ha rates of HST inhibitors and, for example, compound 2.3.
(§5) Plants are assessed and scored for % damage at 16 DAT.

[3] = system: tobacco plants expressing Pseudomonas fluorescens HPPD; assay: Glasshouse spray test, Pseudomonas HPPD transgenic tobacco; assay type: in vivo; settings: C2 line (Pseudomonas HPPD, T2), individual plants
Text: Tobacco plants expressing the wild-type HPPD gene of Pseudomonas fluorescens strain 87-79 under operable control of the double enhanced 35S CMV promoter region, Nos3′ terminator and TMV translational enhancer were provided as detailed in Example 4 of WO0246387.
as §2
Transgenic lines of tobacco, soyabean and corn etc. can be engineered to express various heterologous HPPDs derived from, for example Avena (SEQ ID #26), Wheat (SEQ ID #27), Pseudomonas fluorescens (SEQ ID # 25) and Shewanella colwelliana (SEQ ID #28) as, for example, described in WO 02/46387.
as §3, §4, §5

[4] = system: Arabidopsis HST transgenic tobacco plants; assay: Glasshouse spray test, Arabidopsis HST transgenic tobacco; assay type: in vivo; settings: D2 line (Arabidopsis HST, segregating T1), individual plants

Structure (SMILES): Cc1cc(C)c(-c2c(O)c3nccnc3n(CC(F)F)c2=O)c(C)c1 [Compound 2.11]
- Spinach chloroplast extract % I at 25 ppm [1]: 30%
- Estimated IC50 (ppm) (Arabidopsis HST): 31* ppm
- inhibition at 25 ppm (Chlamydomonas HST; 25 ppm, read-out: Chlamydomonas. HST % I at 25 ppm): 80%

Structure (SMILES): Cn1c(=O)c(-c2c(F)ccc(F)c2Cl)c(O)c2nccnc21 [Compound 2.4]
- Estimated IC50 (ppm) (Arabidopsis HST): 211* ppm
- Chlamydomonas. HST % I at 10 ppm (Chlamydomonas HST): 5%
- Chlamydomonas. HST % I at 100 ppm (Chlamydomonas HST): 45%

Structure (SMILES): Cn1c(=O)c(-c2c(F)ccc(Br)c2Cl)c(O)c2nccnc21 [Compound 2.5]
- Estimated IC50 (ppm) (Arabidopsis HST): 48* ppm
- Chlamydomonas. HST % I at 10 ppm (Chlamydomonas HST): 70%
- Chlamydomonas. HST % I at 100 ppm (Chlamydomonas HST): 90%

Structure (SMILES): CC(C)C(=O)OC1=C(c2cc(Cl)ccc2C(F)(F)F)S(=O)(=O)N(CC(F)F)c2nccnc21 [Compound 3.6]
- % damage at 7 DAT ([2]; 150 gai/ha): 80%
- percent damage at 6 DAT ([2]; 300 g/ha, WT, reps): 65%
- % damage at 7 DAT ([2]; 300 gai/ha): 80% (2×) and 75%
- % damage at 7 DAT ([2]; 450 gai/ha): 85%
- % damage at 7 DAT ([3]; 150 gai/ha): 60%
- % damage at 7 DAT ([3]; 300 gai/ha): 65% (3×) and 70%
- % damage at 7 DAT ([3]; 450 gai/ha): 65%
- % damage at 7 DAT ([4]; 150 gai/ha): 10% (2×) and 70% (2×) and 30% and 20% and 65% and 25%
- % damage at 7 DAT ([4]; 300 gai/ha): 65% and 35% and 7% and 85% (2×) and 80% and 75% and 40%
- % damage at 7 DAT ([4]; 450 gai/ha): 55% and 25% (2×) and 65% (2×) and 70% and 80% and 75%
